Consider eight molecules from ChEMBL document CHEMBL2203037, “Synthesis and Anti-influenza A Virus Activity of 2,2-Dialkylamantadines and Related Compounds” (ACS Med Chem Lett, 2012).

Series [1] can be described thus: Cytotoxicity against dog MDCK cells assessed as cell viability after 72 hrs by MTS assay. It counts as cell-based, Canis lupus familiaris. (In general: Formazan colour is commonly taken as a measure of viable cells.)
The nature of series [2]: Cytotoxicity against dog MDCK cells assessed as cell morphology alterations. The class given is cell-based, Canis lupus familiaris.
In series [3] the test system is Influenza A virus. In words: Antiviral activity against Influenza A virus (A/X-31(H3N2)) infected in MDCK cells assessed as virus-induced cytopathic effect measured 3 days post infection by microscopic analysis. The class given is functional, organism-based. Background: Protection from cytopathic effect is a common read-out in antiviral testing.
Series [4] concerns Influenza A virus. In words: Antiviral activity against Influenza A virus (A/Ishikawa/7/82 (H3N2)) infected in MDCK cells assessed as virus-induced cytopathic effect measured 3 days post infection by microscopic analysis. The class given is functional, organism-based.
In series [5] the test system is Influenza A virus. The experiment in a line: Antiviral activity against amantadine-sensitive Influenza A virus (A/FM/1/47 (H1N1)) infected in MDCK cells assessed as virus-induced cytopathic effect measured 3 days post infection by microscopic analysis. The class given is functional, organism-based. Particulars: A/Fort Monmouth/1/1947(H1N1), 72 h.
Series [6] has as its system Influenza A virus. The experiment in a line: Antiviral activity against amantadine-sensitive Influenza A virus (A/Ned/378/05 (H1N1)) infected in MDCK cells assessed as virus-induced cytopathic effect measured 3 days post infection by microscopic analysis. The class given is functional, organism-based. Particulars: 72 h.
Series [7] concerns H3N2 subtype. In words: Antiviral activity against Influenza A virus (A/HK/7/87 (H3N2)) infected in MDCK cells assessed as virus-induced cytopathic effect by MTS assay. It counts as functional, organism-based, A/Hong Kong/7/1987(H3N2).
The test system of series [8] is H3N2 subtype. The experiment in a line: Antiviral activity against Influenza A virus (A/HK/7/87 (H3N2)) infected in MDCK cells assessed as virus-induced cytopathic effect measured 3 days post infection by microscopic analysis. It counts as functional, organism-based. Particulars: A/Hong Kong/7/1987(H3N2), 72 h.
Series [9] relates to Mammalian orthoreovirus 1. In words: Antiviral activity against Reovirus-1 by cell based assay. It counts as functional, organism-based.
Series [10] concerns Coxsackievirus B4. The experiment in a line: Antiviral activity against Coxsackievirus B4 by cell based assay. The class given is functional, organism-based.
The subject of series [11] is Punta Toro virus. The experiment in a line: Antiviral activity against Punta Toro virus by cell based assay. The class given is functional, organism-based.
Series [12] concerns Sindbis virus. The experiment in a line: Antiviral activity against Sindbis virus by cell based assay. The class given is functional, organism-based.
Series [13] concerns Vesicular stomatitis virus. The experiment in a line: Antiviral activity against Vesicular stomatitis virus by cell based assay. It counts as functional, organism-based.
For series [14], the system named is Human respirovirus 3. In words: Antiviral activity against Parainfluenza-3 virus by cell based assay. The class given is functional, organism-based.
Series [15] deals with Respiratory syncytial virus. In words: Antiviral activity against Respiratory syncytial virus by cell based assay. The class given is functional, organism-based.
Series [16] relates to Feline coronavirus. The experiment in a line: Antiviral activity against Feline coronavirus by cell based assay. It counts as functional, organism-based.
Series [17] deals with Vaccinia virus. The experiment in a line: Antiviral activity against Vaccinia virus by cell based assay. Particulars: Orthopoxvirus vaccinia. It counts as functional, organism-based.
Series [18] deals with Simplexvirus. In words: Antiviral activity against Herpes simplex virus by cell based assay. It counts as functional, organism-based.
[19] abbreviates: Influenza A virus, A/Ishikawa/7/82 (H3N2), MDCK, 72 h.

Activity calls are given as the source filed them. The calls are words filed in the database; no cut-off is given here. Where only a bound is given, the exact number is not on record here.

One may read the CC50 as the concentration that lowers cell viability or growth by half. What is called EC50 is the concentration at which the effect is half-maximal. In the case of `NC(=O)c1ncn([C@@H]2O[C@H](CO)[C@@H](O)[C@H]2O)n1` [RIBAVIRIN], the CC50 at 72 h in series [1] was at least 20 µM. Also, the MCC in series [2] was at least 100 µM. Also, the concentration giving a half-maximal response (EC50) in [3] (mdck) worked out at 8.8 µM; in series [4] (mdck) it was 8.8 µM; in [5] it was 10 µM; in series [6] it was 7.6 µM; in series [7] (Influenza A virus, A/Hong Kong/7/1987(H3N2), MDCK), 7 µM; in series [8], 7.7 µM.

Regarding `CCC1(CC)C2CC3CC(C2)CC1(N(C)C)C3`, in series [1], the CC50 at 72 h was over 100 µM. Besides, the MCC in [2] was at least 100 µM. Besides, the result in series [9], in series [10], in series [11], in [12], in series [13] and in series [14] was inactive. Also, the result in [15], in series [16], in [17] and in series [18] was inactive. In addition, the concentration for a half-maximal effect (EC50) in [3] (Influenza A virus, MDCK, 72 h) is over 100 µM; in series [4] (setting [19]), over 100 µM; in series [5], 43 µM; in series [6], 23 µM; in series [7] (mdck), over 100 µM; in series [8], over 100 µM.

`CCOC(=O)C1=C[C@@H](OC(CC)CC)[C@H](NC(C)=O)[C@@H](N)C1` [OSELTAMIVIR]: the MCC in series [2] was over 100 µM. Besides, the EC50 was 0.11 µM in series [3] (Influenza A virus, MDCK, 72 h); 3 µM in [4] (setting [19]); 16 µM in [5]; 1.5 µM in series [6]; 29 µM in [8].

Regarding `CCC1(CC)C2CC3CC(C2)CC1(N)C3`, the CC50 at 72 h in series [1] is over 100 µM. Further, the MCC in [2] was at least 100 µM. In addition, the result in series [9], in series [10], in series [11], in [12], in series [13] and in series [14] was inactive. Also, the result in series [15], in series [16], in series [17] and in series [18] was inactive. The 50% effective concentration (EC50) in series [3] (Influenza A virus, MDCK, 72 h) is over 100 µM; in series [4] (setting [19]) it was over 100 µM; in series [5], 7 µM; in [6], 4.7 µM; in series [7] (mdck), over 100 µM; in series [8], over 100 µM.

On to `CC(N)C12CC3CC(CC(C3)C1)C2` (configuration not stated) [RIMANTADINE], for which the half-maximal cytotoxic concentration (CC50) at 72 h in series [1] was over 100 µM. The MCC in [2] was at least 100 µM. The EC50 in series [3] (mdck) was 7 µM; in series [4] (setting [19]), 0.45 µM; in series [5] it was 1.9 µM; in [6] it was 0.5 µM; in series [8] it was 0.17 µM.

As for `CC(=O)N[C@H]1[C@H]([C@H](O)[C@H](O)CO)OC(C(=O)O)=C[C@@H]1NC(=N)N` [ZANAMIVIR], the MCC in series [2] was over 200 µM. For the same molecule, the EC50 came to 0.16 µM in series [3] (mdck); 8.7 µM in series [4] (setting [19]); 5 µM in series [5]; 1.7 µM in series [6]; 1.2 µM in [8].

Consider `CCC1(CC)C2CC3CC(C2)CC1(NC)C3`, for which the CC50 at 72 h in series [1] was over 100 µM. For the same molecule, the MCC in series [2] was at least 100 µM. For the same molecule, the result in series [9], in [10], in series [11], in series [12], in series [13] and in [14] was inactive. The result in [15], in [16], in [17] and in series [18] was inactive. The EC50 was over 100 µM in series [3] (Influenza A virus, MDCK, 72 h); over 100 µM in [4] (setting [19]); 9.3 µM in series [5]; 8.7 µM in series [6]; over 100 µM in [7] (mdck); over 100 µM in [8].

With `NC12CC3CC(CC(C3)C1)C2` [AMANTADINE], in [1], the 50% cytotoxic concentration (CC50) at 72 h was over 100 µM. Besides, in series [2], the MCC worked out at 500 µM. Also, the 50% effective concentration (EC50) in series [3] (mdck) worked out at 61 µM; in [4] (setting [19]) it was 11 µM; in series [5], 5.1 µM; in series [8] it was 3.4 µM.
